# Results published in patent US6444643B1, “Methods of using inhibitors of cyclophilin rotamase activity to affect neurological activity” (priority 1995, dated 2002).
# Like-named read-outs stand apart in the source and are kept apart here. Numbered stars: 1 amine (or outer) side, 2 acyl side, 3 side chain; on linkers, the order of the positions; unused ones are H or OH. Square brackets hold non-standard residues; d marks the D form. Peptide text beside a SMILES is read from it. MeBmt = C/C=C/C[C@@H](C)[C@@H](O)[C@H](NC)C(=O)O; X1 = C[C@@H](O)[C@@](C)(C(=O)[*:2])N(C)[*:1]; NMeL = CN[C@@H](CC(C)C)C(=O)O; NMeV = CN[C@H](C(=O)O)C(C)C; NMeAbu = CC[C@H](NC)C(=O)O; Abu = CC[C@H](N)C(=O)O; Dha = C=C(N)C(=O)O; Sar = CNCC(=O)O
# Assays:
# cyclophilin A = cyclophilin A (Homo sapiens, UniProt P62937); assay: Inhibition of peptidyl-prolyl isomerase (rotamase) activity of cyclophilin, chymotrypsin-coupled assay; assay type: biochemical
# Protocol: We evaluated the potencies of drugs in binding to cyclophilin A by examining inhibition of peptidyl prolyl-isomerase activity (Table 1).
# The inhibition of this reaction caused by the addition of different concentrations of inhibitor is determined, and the data is analyzed as a change in first-order rate constant as a function of inhibitor concentration to yield the apparent Ki values. The absorbance at 390 nm versus time is monitored for 90 sec using a spectrophotometer and the rate constants are determined from the absorbance versus. time data files.
# [1] = tested on: chick dorsal root ganglia explants; assay: Chick dorsal root ganglion cultures and neurite outgrowth; assay type: cell-based; settings: for Neurotrophic Potency, Neurite Outgrowth in Chick DRG: relative to cyclosporin A, 48 hours after drug treatment
# [2] = tested on: PC12 cells and sensory neurons, namely dorsal root ganglion cells (DRGS); settings: picomolar concentrations; cited from earlier work
# [3] = apparent Ki, substrate N-succinyl-Ala-Ala-Pro-Phe-p-nitroanilide, read-out: Ki, cyclophilin inhibition
# Sequence of cyclophilin A (P62937 whole entry, species assumed): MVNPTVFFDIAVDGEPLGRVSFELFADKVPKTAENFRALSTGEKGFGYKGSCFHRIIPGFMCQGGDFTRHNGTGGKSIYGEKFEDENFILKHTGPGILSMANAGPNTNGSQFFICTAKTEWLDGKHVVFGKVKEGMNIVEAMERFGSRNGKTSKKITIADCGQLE
Molecule,Ki (cyclophilin A; [3]),"Neurotrophic Potency, Neurite Outgrowth in Chick DRG [1]",Ki (cyclophilin A),neurite outgrowth [2],"EC50 ([1]; chick DRG explants, from dose-response curves (FIG. 1), read-out: ED50, the dose at which 50% of the maximal response was elicited (neurite outgrowth))"
"CCCC[C@@H](C)[C@@H](O)[C@H]1C(=O)N[C@@H](CC)C(=O)N(C)CC(=O)N(C)[C@@H](CC(C)C)C(=O)N[C@@H](C(C)C)C(=O)N(C)[C@@H](CC(C)C)C(=O)N[C@@H](C)C(=O)N[C@H](C)C(=O)N(C)[C@@H](CC(C)C)C(=O)N(C)[C@@H](CC(C)C)C(=O)N(C)[C@@H](C(C)C)C(=O)N1C [Example 2, dihydro-CsA]",100 nM,+,–,–,–
"C=C1NC(=O)[C@H](C)NC(=O)[C@H](CC(C)C)N(C)C(=O)[C@H](C(C)C)NC(=O)[C@H](CC(C)C)N(C)C(=O)CN(C)C(=O)[C@H](CC)NC(=O)[C@H]([C@H](O)[C@H](C)C/C=C/C)N(C)C(=O)[C@H](C(C)C)N(C)C(=O)[C@H](CC(C)C)N(C)C(=O)[C@H](CC(C)C)N(C)C1=O [Example 3, [dehydro-Ala]^8-CsA] (cyclo(A[Dha][NMeL][NMeL][NMeV][MeBmt][Abu][Sar][NMeL]V[NMeL]))",75 nM,+,–,–,–
"C/C=C/C[C@@H](C)[C@@H](O)[C@H]1C(=O)N[C@@H](CC)C(=O)N(C)CC(=O)N(C)[C@@H](C(C)C)C(=O)N[C@@H](C(C)C)C(=O)N(C)[C@@H](CC(C)C)C(=O)N[C@@H](C)C(=O)N[C@H](C)C(=O)N(C)[C@@H](CC(C)C)C(=O)N(C)[C@@H](CC(C)C)C(=O)N(C)[C@@H](C(C)C)C(=O)N1C [Example 4, [MeVal]^4-CsA] (cyclo([MeBmt][Abu][Sar][NMeV]V[NMeL]A[dA][NMeL][NMeL][NMeV]))",–,+++,10 nM,–,–
"C/C=C/C[C@@H](C)[C@@H](O)[C@H]1C(=O)N[C@@H](CC)C(=O)N(C)CC(=O)N(C)[C@@H](CC)C(=O)N[C@@H](C(C)C)C(=O)N(C)[C@@H](CC(C)C)C(=O)N[C@@H](C)C(=O)N[C@H](C)C(=O)N(C)[C@@H](CC(C)C)C(=O)N(C)[C@@H](CC(C)C)C(=O)N(C)[C@@H](C(C)C)C(=O)N1C [Example 5, [Me-homoAla]^4-CsA] (cyclo([MeBmt][Abu][Sar][NMeAbu]V[NMeL]A[dA][NMeL][NMeL][NMeV]))",–,+++,–,–,–
"C/C=C/C[C@@H](C)[C@@H](O)[C@H]1C(=O)N[C@@H](CC)C(=O)N(C)CC(=O)N(C)[C@@](C)([C@@H](C)O)C(=O)N[C@@H](C(C)C)C(=O)N(C)[C@@H](CC(C)C)C(=O)N[C@@H](C)C(=O)N[C@H](C)C(=O)N(C)[C@@H](CC(C)C)C(=O)N(C)[C@@H](CC(C)C)C(=O)N(C)[C@@H](C(C)C)C(=O)N1C [Example 6, [Me-(a-methyl)Thr]^4-CsA] (cyclo([MeBmt][Abu][Sar][X1]V[NMeL]A[dA][NMeL][NMeL][NMeV]))",–,+++,–,–,–
"cyclosporin A [Example 1, reference compound]",–,+++,–,stimulates neurite out growth,50 nM
